In article PMC10532587, “An Investigation of Structure–Activity Relationships and Cell Death Mechanisms of the Marine Alkaloids Discorhabdins in Merkel Cell Carcinoma Cells” (Marine Drugs, 2023):
pIC50: −log10 of the molar value. Read-outs that look alike come from different tables or passages of the source.

What was measured:
[1] = system: VP-MCC cell lines (MKL-1, MKL-2, and Waga); assay: Selectivity VP-MCC versus control cells (average AUC); assay type: cell-based
Source text: (§1) In order to compare responses among all of the discorhabdins and cell lines (98 combinations), dose–response curves were generated using identical discorhabdin dilution series. GraphPad Prism 8 (San Diego, CA, USA) software was utilized to graph dose–response data and to calculate IC50 values and area under the dose–response curves (AUC) along with 95% confidence interval estimates using four-parameter logistic nonlinear regression analysis. For further analysis and comparisons, AUC for each cell line/discorhabdin pair was visualized in a heatmap generated in R version 1.3.1073 (R Core Team (2013). R: A language and environment for statistical computing. R Foundation for Statistical Computing, Vienna, Austria, http://www.R-project.org/ (accessed on 12 January 2023).
Figure S41: Discorhabdi nselectivity
Discorhabdin selectivity for VP -MCC and VN- MCCcells was estimated by comparison of activity (average AUC) for each dis corhabdin against VP -MCC (panel A) or VN- MCC (panel B) cell lines compared to control cells . Discorhabdins were sort ed by selectivity from most to least selective. - fold dif fer ence = (av e VN -MCC or VP -MCC AUC/ control AUC). Error bars […]
(1 picture or pasted object on this page, not shown here)

[2] = system: HaCaT; assay: Cell survival by CellTiterGlo, control cells; assay type: cell-based, human; details: for IC50: control skin cell line, CellTiterGlo, normalized to DMSO, read-out: IC50 (nM) HaCaT; for AUC (arbitrary units) HaCaT: area under the dose-response curve, control cells
[3] = system: caspase-3/7; assay: Caspase-3/7 activation (CaspaseGlo 3/7) in UISO cells; assay type: cell-based; details: 8 or 24 h; normalized to DMSO control
Method: (§2) (a) Caspase activation. Cells were treated for 8 or 24 h with indicated discorhabdins or bortezomib. Caspase-3/7 activity was determined (Promega CaspaseGLO-3/7) and normalized to untreated (DMSO) control cells. Error bars represent sd (n = 4). (b). Apoptosis/necrosis. Cells were treated for up to 24 h with the indicated discorhabdins and assessed for Annexin binding and cell permeability using the Promega RealTime-Glo™ Annexin V Apoptosis and Necrosis Assay kit. Luminescence indicates Annexin binding, fluorescence indicates membrane permeability.
(§3) Three methods were employed for assessment of MCC and control cell survival/viability after discorhabdin treatment, two metabolic assays and a cell permeability assay. For all three methods, cells were plated in 384-well plates at 2500 cells/well and treated with various concentrations of discorhabdins for various time periods. CellTiterGlo^TM (Promega, Madison, WI, USA) measures cellular ATP content and was used to estimate potency of discorhabdins in cell viability assays as previously described. Continuous monitoring of metabolic activity was accomplished using a cellular reducing potential luminescence assay, the RealTime-Glo^TM MT Cell Viability Assay (Promega, Madison, WI, USA) according to manufacturer’s instructions. Loss of cell plasma membrane integrity was assessed using a cell-impermeant molecule that becomes fluorescent upon binding DNA [82] in parallel with apoptosis detection per manufacturer’s instructions (RealTimeGlo^TM Annexin V Apoptosis and Necrosis Assay-Promega). Two additional assays of apoptotic cell death were also used. Caspase activation in response to treatment of MCC cells by discorhabdins or bortezomib (as a positive control) was measured using the CaspaseGlo® 3/7 Assay (Promega, Madison, WI, USA) according to the manufacturer’s instructions at multiple time points. […]

[4] = system: Waga; assay: Cell survival by CellTiterGlo, VP-MCC line Waga; assay type: cell-based; details: for IC50: CellTiterGlo, normalized to DMSO; for AUC (arbitrary units) WaGa: area under the dose-response curve
[5] = system: MKL-2; assay: Cell survival by CellTiterGlo, VP-MCC line MKL-2; assay type: cell-based; details: for IC50: CellTiterGlo, normalized to DMSO; for AUC (arbitrary units) MKL-2: area under the dose-response curve
[6] = system: UISO; assay: Cell survival by CellTiterGlo, VN-MCC line UISO; assay type: cell-based; details: for IC50: CellTiterGlo, normalized to DMSO; for AUC (arbitrary units) UISO: area under the dose-response curve
[7] = system: MKL-1; assay: Cell survival by CellTiterGlo, VP-MCC line MKL-1; assay type: cell-based; details: VP-MCC; for IC50: MKL-1, CellTiterGlo, normalized to DMSO, read-out: IC50 (nM) MKL-1; for AUC (arbitrary units) MKL-1: area under the dose-response curve
[8] = system: MCC13; assay: Cell survival by CellTiterGlo, VN-MCC line MCC13; assay type: cell-based; details: for IC50: CellTiterGlo, normalized to DMSO; for AUC (arbitrary units) MCC13: area under the dose-response curve
[9] = system: MCC cells; assay: Cellular ATP content (CellTiterGlo), time course; assay type: cell-based; details: 10 µM, normalized to DMSO control
Method: (§4) Cells were treated with the indicated discorhabdins (10 µM) and assessed for mitochondrial membrane potential (MMP) using JC-10 ratiometric dye. JC-10 was added for the last hour of incubation. Cellular reducing potential was assessed using a RealTimeGlo MT Cell Viability kit, and cellular ATP levels using CellTiterGlo. All values were normalized to DMSO control. Error bars (n = 3–4) represent sd. See Figures S45 and S46 for additional cell line/discorhabdin combinations, concentrations, and time points for reducing potential and MMP, respectively.
(§5) Three methods were employed for assessment of MCC and control cell survival/viability after discorhabdin treatment, two metabolic assays and a cell permeability assay. For all three methods, cells were plated in 384-well plates at 2500 cells/well and treated with various concentrations of discorhabdins for various time periods. […] Continuous monitoring of metabolic activity was accomplished using a cellular reducing potential luminescence assay, the RealTime-Glo^TM MT Cell Viability Assay (Promega, Madison, WI, USA) according to manufacturer’s instructions. Loss of cell plasma membrane integrity was assessed using a cell-impermeant molecule that becomes fluorescent upon binding DNA [82] in parallel with apoptosis detection per manufacturer’s instructions (RealTimeGlo^TM Annexin V Apoptosis and Necrosis Assay-Promega). […]

[10] = system: MCC cells; assay: Cellular reducing potential (RealTime-Glo MT Cell Viability); assay type: cell-based; details: 10 µM; normalized to DMSO control
Method: as §4, §5

[11] = system: MKL-1 cells; assay: Mitochondrial membrane potential (JC-10) in MKL-1 cells; assay type: cell-based; details: 10 µM, normalized to DMSO control
Method: as §4
(§6) Mitochondrial membrane potential (MMP) was assessed using the JC-10 ratiometric dye (Sigma, St. Louis, MO, USA). UISO or MKL-1 cells were treated in black-walled, clear-bottom 384-well plates (Corning Life Sciences, Durham, NC, USA) with discorhabdins or doxorubicin (Sigma, St. Louis, MO, USA) as a positive control for up to 24 h with JC-10 for the last 1 h of incubation. Red/green fluorescence signals were measured, the red/green ratio for each well was calculated and normalized to untreated (DMSO) control wells for the same cell line and incubation time to determine relative MMP.

[12] = system: UISO cells; assay: Mitochondrial membrane potential (JC-10) in UISO cells; assay type: cell-based; details: 10 µM, normalized to DMSO control
Method: as §4, §6

[13] = system: control (HaCaT) and Merkel cell carcinoma cell lines; assay: Cell survival by CellTiterGlo, all seven cell lines; assay type: cell-based; details: MCC and control cell lines
Method: (§7) Three methods were employed for assessment of MCC and control cell survival/viability after discorhabdin treatment, two metabolic assays and a cell permeability assay. For all three methods, cells were plated in 384-well plates at 2500 cells/well and treated with various concentrations of discorhabdins for various time periods. CellTiterGlo^TM (Promega, Madison, WI, USA) measures cellular ATP content and was used to estimate potency of discorhabdins in cell viability assays as previously described. Continuous monitoring of metabolic activity was accomplished using a cellular reducing potential luminescence assay, the RealTime-Glo^TM MT Cell Viability Assay (Promega, Madison, WI, USA) according to manufacturer’s instructions. Loss of cell plasma membrane integrity was assessed using a cell-impermeant molecule that becomes fluorescent upon binding DNA [82] in parallel with apoptosis detection per manufacturer’s instructions (RealTimeGlo^TM Annexin V Apoptosis and Necrosis Assay-Promega). Two additional assays of apoptotic cell death were also used. Caspase activation in response to treatment of MCC cells by discorhabdins or bortezomib (as a positive control) was measured using the CaspaseGlo® 3/7 Assay (Promega, Madison, WI, USA) according to the manufacturer’s instructions at multiple time points. Inhibition of apoptotic cell death was investigated using pre-treatment of cells with for 1 h with the pan-caspase inhibitor Z-VAD-FMK (Enzo Life Sciences, Farmingdale, NY, USA) followed by treatment with discorhabdins or bortezomib and estimation of cell viability as outlined above.
as §1
Figure S39: Activity of discorhabdins against M CC cell lines.
The indicated discorh abd ins were ass essed for th eir ability to affect surviv al of control (H aCaT) and Merkel cell carcino ma cell lines (VN-MCC: MCC13, MCC26, UISO and VP -MCC: MKL-1, MKL-2, Wag a). Cells were plat ed at 2500 cells/well and compounds the next day. Cell survival was estimated by CellTiterGlo (normalized to untreated (DMSO) cells on the same plate). Structures w ere o btained from the supplier and/or the PubChem database or as described in the text. Number in bold in ( ) refers to structures in Figure 1 in the text. Curves were plotted and IC50 values and 95% confidence interval calculated by GraphPad software. […]

[14] = system: MCC26; assay: Cell survival by CellTiterGlo, VN-MCC line MCC26; assay type: cell-based; details: for IC50: CellTiterGlo, normalized to DMSO; for AUC (arbitrary units) MCC26: area under the dose-response curve
[15] = system: caspase-3/7; assay: Caspase-3/7 activation (CaspaseGlo 3/7) in MKL-1 cells; assay type: cell-based; details: 8 or 24 h; normalized to DMSO control
Method: as §2, §3

[16] = system: MCC cell lines; assay: Cell survival by CellTiterGlo, MCC cell lines together; assay type: cell-based; details: for averaged potency (IC50) across all MCC cell lines tested: average over MCC cell lines
Method: as §7, §1

[17] = system: MCC cells; assay: Cell death after pretreatment with pan-caspase inhibitor Z-VAD-FMK; assay type: cell-based; details: Z-VAD-FMK 40 µM, 1 h pretreatment; discorhabdins 10 µM, bortezomib 1 µM
Method: as §3

[18] = system: caspase-3; design: method as in PMID 9917313; details: cited from earlier work
[19] = prostate cancer xenograft model; cited from earlier work

SMILES	increased activity against VP-MCC compared to the control [1] [fold]	IC50 ([2]; Homo sapiens, HaCaT) [nM]	AUC (arbitrary units) HaCaT [2] [arbitrary units]	caspase-3/7 activation, UISO [3]	IC50 [4] [nM]	AUC (arbitrary units) WaGa [4] [arbitrary units]	IC50 [5] [nM]	AUC (arbitrary units) MKL-2 [5] [arbitrary units]	IC50 [6] [nM]	AUC (arbitrary units) UISO [6] [arbitrary units]	IC50 [7] [nM]	AUC (arbitrary units) MKL-1 [7] [arbitrary units]	IC50 [8] [nM]	AUC (arbitrary units) MCC13 [8] [arbitrary units]	cellular ATP content [9]	cellular reducing potential [10]	IC50 [14] [nM]	AUC (arbitrary units) MCC26 [14] [arbitrary units]	caspase-3/7 activation, MKL-1 [15]	averaged potency (IC50) across all MCC cell lines tested [16]	also measured
O=C1C=C2S[C@H]3C[C@]2(C=C1Br)C1=C(N3)C(=O)c2[nH]cc3c2C1=NCC3 [Compound 2, (+)-(6S,8S) discorhabdin B]	> 10	1040	133.9	lack of caspase-3/7 activation	75	9.624	90	14.49	331	39.51	25	3.635	426	51.68	loss of cellular ATP content was dramatic and rapid	dropped significantly	731	83.94	lack of caspase-3/7 activation	sub-micromolar	pIC50 ([2]; Homo sapiens, HaCaT, read-out: IC50 for control cells): ≥ 6.00; mitochondrial membrane potential (MMP), MKL-1 [11]: significantly reduced; mitochondrial membrane potential (MMP), UISO [12]: significantly reduced; activity on cell viability, in words [13]: comparable activity against MCC and control cell lines; fold more active than discorhabdin Q (3) against MCC cells ([16]; comparator discorhabdin Q (3)): > 10 fold; fold more active against MCC cells compared to 3 ([16]; comparator printed as 3, sentence is about discorhabdin G*/I (4)): 3 fold
CC(C)C[C@H](NC(=O)[C@H](Cc1ccccc1)NC(=O)c1cnccn1)B(O)O [bortezomib, reference compound]	–	–	–	robustly activates caspase	–	–	–	–	–	–	–	–	–	–	–	–	–	–	robustly activates caspase	–	effect of Z-VAD-FMK pretreatment on induced MCC cell death [17]: reduced bortezomib-induced
Cn1cc2c3c1C(=O)C1=C(C3=NCC2)C2(C=C(Br)C(=O)C(Br)=C2)CCN1 [Compound 17, discorhabdin P]	> 10	1260	150.9	–	106	14.11	87	17.05	292	50.65	68	7.146	499	64.76	–	–	1210	140.1	–	sub-micromolar	caspase-3 inhibition [18]: reported to inhibit caspase-3; activity on cell viability, in words [13]: more potent than discorhabdin C in all seven cell lines
O=C1C2=C3C4=[N+](CCc5c[nH]c1c54)[C@@H]1C(=O)C=C4S[C@@H](C[C@@]43[C@H]1O)N2 [Compound 12, (−)-(1R,2S,6R,8S) discorhabdin L]	–	2550	290.4	lack of caspase-3/7 activation	440	55.36	245	50.71	660	103	83	13.23	466	93.66	loss of cellular ATP content was dramatic and rapid	dropped significantly	1130	140.6	lack of caspase-3/7 activation	sub-micromolar	in vivo toxicity in animals [19]: minimal in vivo toxicity; mitochondrial membrane potential (MMP), MKL-1 [11]: significantly reduced; mitochondrial membrane potential (MMP), UISO [12]: significantly reduced
